Assay results from patent EP0536419B1, “TRICYCLIC TRIAZOLE DERIVATIVES, PRODUCTION AND USE THEREOF” (TORAY INDUSTRIES, INC., priority 1991, dated 1992).
pIC50: −log10 of the molar value. Counter-ions that a name gives are not always drawn. Like-named read-outs stand apart in the source and are kept apart here.

Legend:
PAF receptor = biological target: T1, PAF receptor (Oryctolagus cuniculus, UniProt G1TEI7); experiment: Binding test using [3H]-PAF (PAF receptor binding test); parameters: species or system rabbit; conditions: rabbit platelet membrane fraction, [3H]-PAF 0.4 nM, 25°C, 60 minutes; read-out: Receptor Binding Inhibition IC50 (converted)
T1 construct: Cell membrane fraction of rabbit platelets was prepared; from tissue; host or cells: rabbit platelets (cell membrane fraction)
T1 sequence (G1TEI7 1-342): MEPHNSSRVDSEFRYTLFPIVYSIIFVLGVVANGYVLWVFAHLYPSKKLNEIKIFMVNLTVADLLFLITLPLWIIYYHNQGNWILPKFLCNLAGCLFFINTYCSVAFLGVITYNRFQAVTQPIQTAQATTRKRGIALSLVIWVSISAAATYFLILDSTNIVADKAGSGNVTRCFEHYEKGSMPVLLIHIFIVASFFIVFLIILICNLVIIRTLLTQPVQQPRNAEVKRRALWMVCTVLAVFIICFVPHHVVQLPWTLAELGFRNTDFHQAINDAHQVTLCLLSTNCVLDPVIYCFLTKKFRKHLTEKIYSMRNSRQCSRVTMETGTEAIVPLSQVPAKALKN
Description: Binding Test Using [^3H]-PAF (PAF receptor binding test)
Cell membrane fraction of rabbit platelets was prepared in accordance with the method by Hwang et al (Biochemistry; 22; 4756, (1983)). In 10 mM Tris buffer containing 0.25% bovine serum albumin, 50 mg of this membrane fraction was suspended and tritium-labelled PAF [^3H]-PAF; 0.4 nM) and a test compound were added thereto. After incubating the resulting mixture at 25°C for 60 minutes, the mixture was subjected to filtration through a filter paper made of glass fibers. The filter paper was washed with cold Tris buffer three times and then transferred to a vial. A scintillator was added thereto and the dose of radioactivity was measured with a liquid scintillation counter. The inhibition rate (binding ability) of the test compound was calculated according to the following equation and IC50 values were determined by interpolation. Inhibition Rate (%) = {1 - [((A - B))/((C - B))]} x 100 [formula] (wherein A represents amount bound in the presence of the compound, B represents amount bound by non-specific binding which is the dose of [^3H]-PAF bound radioactivity in the presence of 1 µM of PAF, and C represents total amount bound which is the dose of [^3H]-PAF bound radioactivity.
As a control agent, WEB2086 (Japanese Laid-open Patent Application (Kokai) No. 65-176591) disclosed as a PAF-antagonist was used.

rabbit platelets = rabbit platelets (Oryctolagus cuniculus, UniProt G1TEI7); experiment: in vitro platelet agglutination inhibition test (PAF-induced); assay type: cell-based; conditions: rabbit platelet-rich plasma, PAF final concentration 10 ng/ml, 37°C; for IC50: read-out: PAF-Induced Platelet Aggregation IC50 (converted)
rabbit platelets, sequence (G1TEI7 1-342): as above
Description: To determine the PAF-antagonizing property of the compounds, the PAF-induced agglutination of rabbit platelets in vitro is utilized. To obtain platelet-rich plasma (PRP), venous blood is taken from rabbit auricular vein into a plastic centrifugal tube containing 1.0% sodium citrate solution. The ratio of sodium citrate solution to blood is 1:10. The obtained citrate-containing blood is centrifuged at 70 x g (625 rpm) at room temperature for 20 minutes and the PRP in the upper layer is transferred to another plastic tube. The remaining lower layer is further centrifuged at 1500 x g (2800 rpm) for 10 minutes and the platelet poor plasma (PPP) in the upper layer is recovered. The platelet agglutination is measured by using aggregometer commercially available from Niko Bioscience, Inc. An aliquote of the PRP is poured into a cubette for measurement. Immediately thereafter, aspirin, creatinin phosphate and creatinin phosphokinase are added to final concentrations of 0.1 mM, 7 mM and 45 U/ml, respectively. Then a solution of a test compound is added and the resulting mixture is stirred at 37°C for 2 minutes. To the resultant, PAF (final concentration: 10 ng/ml) is added to induce platelet aggregation. The platelet aggregation rate is calculated from the relative maximum value in each aggregation curve taking the transmittance of PPP as the maximum aggregation (100% aggregation). Using the aggregation rate when physiological saline was added as a control, the inhibition rate which was the ratio of the aggregation rate when the test compound was added to the control was calculated and the IC50 values were determined by interpolation.

`Cc1nnc2n1-c1ccccc1N(CCN1CCN(C(c3ccccc3)c3ccccc3)CC1)C2` [Compound 43, 4,5-dihydro-1-methyl-5-[3-[4-(diphenylmethyl)piperazin-1-yl]ethyl][1,2,4]triazolo[4,3-a]quinoxaline fumaric acid salt] was tested, and the IC50 (PAF receptor) was 6460 nM.
Work on `Cc1nnc2n1-c1ccccc1N(CCCN1CCN(C(c3ccccc3)c3ccccc3)CC1)C2` [Compound 44, 4,5-dihydro-1-methyl-5-[3-[4-(diphenylmethyl)piperazin-1-yl]propyl][1,2,4]triazolo[4,3-a]quinoxaline] yielded an IC50 (PAF receptor) of 1670 nM.
Work on `CCCc1nnc2n1-c1ccccc1N(CCCN1CCC(c3c[nH]c4ccccc34)CC1)C2` [Compound 53, 4,5-dihydro-1-propyl-5-[3-[4-(3-indolyl)piperidin-1-yl]propyl] [1,2,4]triazolo[4,3-a]quinoxaline] yielded an IC50 (rabbit platelets) of 3960 nM and an IC50 (PAF receptor) of 3300 nM.
For `COc1ccc2[nH]cc(C3CCN(CCCN4Cc5nnc(C)n5-c5ccccc54)CC3)c2c1` [Compound 54, 4,5-dihydro-1-methyl-5-[3-[4-(5-methoxy-3-indolyl)piperidin-1-yl]propyl] [1,2,4]triazolo[4,3-a]quinoxaline], the IC50 (PAF receptor) was 1160 nM.
`Cc1nnc2n1-c1ccccc1N(CCCN1CCC(c3c[nH]c4ccc(Cl)cc34)CC1)C2` [Compound 55, 4,5-dihydro-1-methyl-5-[3-[4-(5-chloro-3-indolyl)piperidin-1-yl]propyl] [1,2,4]triazolo[4,3-a]quinoxaline] gave an IC50 (PAF receptor) of 803 nM.
With `Cc1nnc2n1-c1ccccc1N(CCCN1CCC(c3c[nH]c4ccc(Br)cc34)CC1)C2` [Compound 56, 4,5-dihydro-1-methyl-5-[3-[4-(5-bromo-3-indolyl)piperidin-1-yl]propyl] [1,2,4]triazolo[4,3-a]quinoxaline] the IC50 (PAF receptor) was 950 nM.
`Cc1nnc2n1-c1ccccc1N(CCCN1CCC(c3c[nH]c4ccc(F)cc34)CC1)C2` [Compound 57, 4,5-dihydro-1-methyl-5-[3-[4-(5-fluoro-3-indolyl)piperidin-1-yl]propyl] [1,2,4]triazolo[4,3-a]quinoxaline] showed an IC50 (PAF receptor) of 2700 nM.
`Cc1ccc2[nH]cc(C3CCN(CCCN4Cc5nnc(C)n5-c5ccccc54)CC3)c2c1` [Compound 58, 4,5-dihydro-1-methyl-5-[3-[4-(5-methyl-3-indolyl)piperidin-1-yl]propyl] [1,2,4]triazolo[4,3-a]quinoxaline] gave an IC50 (PAF receptor) of 636 nM.
Compound `Cc1nnc2n1-c1ccccc1N(CCCN1CC=C(c3c[nH]c4ccccc34)CC1)C2` [Compound 63, 4,5-dihydro-1-methyl-5-[3-[1,2,3,6-tetrahydro-4-(3-indolyl)pyridin-1-yl]propyl] [1,2,4]triazolo[4,3-a]quinoxaline] has a pIC50 (rabbit platelets; read-out: PAF-Induced Platelet Aggregation IC50) of 4.98.
`CCn1cc(C2CCN(CCCN3Cc4nnc(C)n4-c4ccccc43)CC2)c2ccccc21` [Compound 64, 4,5-dihydro-1-methyl-5-[3-[4-(1-ethyl-3-indolyl)piperidin-1-yl]propyl][1,2,4]triazolo[4,3-a] quinoxaline fumaric acid salt] showed an IC50 (rabbit platelets) of 2800 nM and an IC50 (PAF receptor) of 806 nM.
For `Cc1nnc2n1-c1ccc(Cl)cc1N(CCCN1CCC(c3c[nH]c4ccccc34)CC1)C2` [Compound 65, 7-chloro-4,5-dihydro-1-methyl-5-[3-[4-(3-indolyl)piperidin-1-yl]propyl][1,2,4]triazolo[4,3-a]quinoxaline], the IC50 (rabbit platelets) was 4340 nM and the IC50 (PAF receptor) was 10400 nM.
`Cc1nnc2n1-c1ccc(F)cc1N(CCCN1CCC(c3c[nH]c4ccccc34)CC1)C2` [Compound 66, 7-fluoro-4,5-dihydro-1-methyl-5-[3-[4-(3-indolyl)piperidin-1-yl]propyl][1,2,4]triazolo[4,3-a]quinoxaline] showed an IC50 (rabbit platelets) of 4270 nM.
`Cc1nnc2n1-c1ccccc1N(CCCN1CCN(C(c3ccccc3)c3ccc(Cl)cc3)CC1)C2` (centres unmarked) [Compound 69, 4,5-dihydro-1-methyl-5-[3-[4-[(4-chlorophenyl)phenylmethyl]piperazin-1-yl]propyl][1,2,4]triazolo[4,3-a]quinoxaline] gave an IC50 (PAF receptor) of 702 nM.
With `Cc1nnc2n1-c1ccccc1N(CCCN1CCC(C(O)(c3ccccc3)c3ccccc3)CC1)C2` [Compound 74, 4,5-dihydro-1-methyl-5-[3-[4-(hydroxydiphenylmethyl)piperidin-1-yl]propyl][1,2,4]triazolo[4,3-a] quinoxaline tartaric acid salt] the IC50 (PAF receptor) was 357 nM.
With `Cc1nnc2n1-c1ccccc1N(CCCN1CCC(OC(c3ccccc3)c3ccccc3)CC1)C2` [Compound 76, 4,5-dihydro-1-methyl-5-[3-[4-(diphenylmethoxy)piperidin-1-yl]propyl][1,2,4]triazolo[4,3-a] quinoxaline tartaric acid salt] the IC50 (PAF receptor) was 202 nM.
`Cc1nnc2n1-c1ccccc1N(CCCN1CCC(=C(c3ccc(F)cc3)c3ccc(F)cc3)CC1)C2` [Compound 77, 4,5-dihydro-1-methyl-5-[3-[4-[bis(4-fluorophenyl)methylene]piperidin-1-yl]propyl][1,2,4]triazolo[4,3-a] quinoxaline] showed an IC50 (rabbit platelets) of 141 nM and an IC50 (PAF receptor) of 190 nM.
`Cc1nnc2n1-c1ccccc1N(CCCN1CCC(=C3c4ccccc4C=Cc4ccccc43)CC1)C2` [Compound 78, 4,5-dihydro-1-methyl-5-[3-[4-(5H-dibenzo[a,d]cyclohepten-5-ylidene)piperidin-1-yl]propyl][1,2,4]triazolo[4,3-a] quinoxaline] gave an IC50 (rabbit platelets) of 4800 nM and an IC50 (PAF receptor) of 118 nM.
Compound `Cc1nnc2n1-c1ccccc1N(CCCN1CCC(c3noc4ccccc34)CC1)C2` [Compound 80, 4,5-dihydro-1-methyl-5-[3-[4-(1,2-benzisoxazol-3-yl)piperidin-1-yl]propyl][1,2,4]triazolo[4,3-a] quinoxaline] has an IC50 (rabbit platelets) of 103 nM and an IC50 (PAF receptor) of 770 nM.
Work on `Cc1nnc2n1-c1ccccc1N(CCCN1CCC(n3c(=O)[nH]c4ccccc43)CC1)C2` [Compound 81, 4,5-dihydro-1-methyl-5-[3-[4-(2-keto-1-benzimidazolynyl)piperidin-1-yl]propyl][1,2,4]triazolo[4,3-a] quinoxaline] yielded an IC50 (rabbit platelets) of 1530 nM and an IC50 (PAF receptor) of 3380 nM.
`Cc1nnc2n1-c1ccccc1N(CCCN1CCC(=C(c3ccccc3)c3ccccc3)C1)C2` [Compound 85, 4,5-dihydro-1-methyl-5-[3-[3-(diphenylmethylene)pyrrolidin-1-yl]propyl][1,2,4]triazolo[4,3-a] quinoxaline] was tested, and the IC50 (rabbit platelets) was 3030 nM and the IC50 (PAF receptor) was 238 nM.
For `COc1ccccc1N1CCN(CCCN2Cc3nnc(C)n3-c3ccccc32)CC1` [Compound 86, 4,5-dihydro-1-methyl-5-[3-[4-(2-methoxyphenyl)piperazin-1-yl]propyl][1,2,4]triazolo[4,3-a] quinoxaline], the IC50 (rabbit platelets) was 5260 nM and the IC50 (PAF receptor) was 7170 nM.
`Cc1nnc2n1-c1ccccc1N(CCCN1CCC(=C3c4ccccc4CCc4ccccc43)CC1)C2` [Compound 87, 4,5-dihydro-1-methyl-5-[3-[4-(10,11-dihydro-5H-dibenzo[a,d]cyclohepten-5-ylidene)piperidin-1-yl]propyl][1,2,4]triazolo[4,3-a] quinoxaline] showed an IC50 (rabbit platelets) of 6180 nM and an IC50 (PAF receptor) of 199 nM.
Work on `Cc1nnc2n1-c1ccccc1N(CCCN1CCC(=C3c4ccccc4COc4ccccc43)CC1)C2` [Compound 88, 4,5-dihydro-1-methyl-5-[3-[4-(6,11-dihydrodibenzo[b.e]oxepin-11-ylidene)piperidin-1-yl]propyl][1,2,4]triazolo[4,3-a] quinoxaline] yielded an IC50 (rabbit platelets) of 1710 nM and an IC50 (PAF receptor) of 675 nM.
In the case of `Cc1nnc2n1-c1ccccc1N(CCCN1CCC(C(O)(c3ccc(F)cc3)c3ccc(F)cc3)CC1)C2C` (centres unmarked) [Compound 90, 4,5-dihydro-1,4-dimethyl-5-[3-[4-[hydroxybis(4-fluorophenyl)methyl]piperidin-1-yl]propyl][1,2,4]triazolo[4,3-a] quinoxaline], the IC50 (rabbit platelets) was 1030 nM and the IC50 (PAF receptor) was 1820 nM.
In the case of `CCc1nnc2n1-c1ccccc1N(CCCN1CCC(=C(c3ccccc3)c3ccccc3)CC1)C2` [Compound 92, 1-ethyl-4,5-dihydro-5-[3-[4-(diphenylmethylene)piperidin-1-yl]propyl][1,2,4]triazolo[4,3-a] quinoxaline], the IC50 (rabbit platelets) was 1350 nM.
`Cc1nnc2n1-c1ccccc1N(CCCN1CCC(C(O)(c3cccs3)c3cccs3)CC1)C2` [Compound 127] was tested, and the IC50 (rabbit platelets) was 455 nM and the IC50 (PAF receptor) was 152 nM.
In the case of `Cc1nnc2n1-c1ccccc1N(CCCN1CCC(C(=O)c3ccccc3)CC1)C2` [Compound 128, 4,5-dihydro-1-methyl-5-[3-(4-benzoylpiperidin-1-yl)propyl] [1,2,4]triazolo[4,3-a]quinoxaline], the IC50 (rabbit platelets) was 4090 nM and the IC50 (PAF receptor) was 1520 nM.
In the case of `Cc1nnc2n1-c1ccccc1N(CCCN1CCC(C(O)(c3ccccc3)c3cccs3)CC1)C2` (centres unmarked) [Compound 129], the IC50 (rabbit platelets) was 340 nM and the IC50 (PAF receptor) was 340 nM.
`COc1ccc(C(O)(c2ccccc2)C2CCN(CCCN3Cc4nnc(C)n4-c4ccccc43)CC2)cc1OC` (centres unmarked) [Compound 130, 4,5-dihydro-1-methyl-5-[3-[4-[hydroxy(3,4-dimethoxyphenyl)phenylmethyl]piperidin-1-yl]propyl] [1,2,4]triazolo[4,3-a]quinoxaline] was tested, and the IC50 (rabbit platelets) was 578 nM and the IC50 (PAF receptor) was 126 nM.
`Cc1nnc2n1-c1ccccc1N(CCCN1CCC(C(O)(c3ccccc3)c3ccc(N(C)C)cc3)CC1)C2` (centres unmarked) [Compound 131] showed an IC50 (rabbit platelets) of 242 nM and an IC50 (PAF receptor) of 83.8 nM.
In the case of `Cc1cccc(C(O)(c2ccccc2)C2CCN(CCCN3Cc4nnc(C)n4-c4ccccc43)CC2)c1` (centres unmarked) [Compound 132, 4,5-dihydro-1-methyl-5-[3-[4-[hydroxyphenyl(3-tolyl)methyl]piperidin-1-yl]propyl] [1,2,4]triazolo[4,3-a]quinoxaline], the IC50 (rabbit platelets) was 70.9 nM and the IC50 (PAF receptor) was 51.2 nM.
Work on `Cc1nnc2n(CCN3CCN(C(c4ccccc4)c4ccccc4)CC3)c3ccccc3n12` [Compound 191, 3-methyl-9-[3-[4-(diphenylmethyl)piperazin-1-yl]ethyl]-9H-[1,2,4]triazolo[4,3-a]benzimidazole fumaric acid salt] yielded an IC50 (PAF receptor) of 7100 nM.
